Measurements: US20080160009A1, “Inhibiting Cav3 Isoforms and the 25B Splice Varients for the Diagnosis and Treatment of Cancer” (priority 2004, published 2008)

Test system: human PC3 prostate cancer cells
Test: Lifespan of SCID mice inoculated with human PC3 prostate cancer cells
Format: in vivo

**Q.** For COc1ccc(CCN2CCC[C@H]2COC(c2ccccc2)c2ccc(Cl)cc2)cc1 (stereo partly shown) [TH-1177], which lifespan is on record?
**A.** Its lifespan is “significantly extended the lifespan”.
